Measured values reported in article PMC12706802, “Ortho-Hydroxyanilides: Slow-Acting, Selective Histone Deacetylase 1/2 Inhibitors Suitable for Photocaging Applications” (ACS Pharmacology & Translational Science, 2025).

Key:
HDAC2 [1] = conditions: literature value for Cpd-60; ref number not given; cited from earlier work
HDAC1 [2] = target: T1, HDAC1 (Homo sapiens, UniProt Q13547); assay: 100-fold jump-dilution experiments; conditions: 1 h incubation at 5-fold IC50, then 1:100 dilution
Procedure: (§1) The assay was performed according to a previously published protocol with minor modifications. […] Subsequently, this “incubation mix” was diluted 1:100, and the dissociation of test compounds was monitored continuously.
(§2) The enzymes were preincubated with the inhibitor for 1 h before 1:100 dilution. […] The assay was performed in triplicates and repeated at least twice.
(§3) Afterward, the “incubation mix” was diluted 100-fold either with assay buffer or the respective inhibitor solution at its original concentration. […] Compounds were tested in triplicates in at least two independent experiments.

HDAC2 [3] = target: T2, HDAC2 (Homo sapiens, UniProt Q92769); assay: 100-fold jump-dilution experiments; conditions: 1 h incubation at 10-fold IC50, then 1:100 dilution
T2 sequence (Q92769 whole entry): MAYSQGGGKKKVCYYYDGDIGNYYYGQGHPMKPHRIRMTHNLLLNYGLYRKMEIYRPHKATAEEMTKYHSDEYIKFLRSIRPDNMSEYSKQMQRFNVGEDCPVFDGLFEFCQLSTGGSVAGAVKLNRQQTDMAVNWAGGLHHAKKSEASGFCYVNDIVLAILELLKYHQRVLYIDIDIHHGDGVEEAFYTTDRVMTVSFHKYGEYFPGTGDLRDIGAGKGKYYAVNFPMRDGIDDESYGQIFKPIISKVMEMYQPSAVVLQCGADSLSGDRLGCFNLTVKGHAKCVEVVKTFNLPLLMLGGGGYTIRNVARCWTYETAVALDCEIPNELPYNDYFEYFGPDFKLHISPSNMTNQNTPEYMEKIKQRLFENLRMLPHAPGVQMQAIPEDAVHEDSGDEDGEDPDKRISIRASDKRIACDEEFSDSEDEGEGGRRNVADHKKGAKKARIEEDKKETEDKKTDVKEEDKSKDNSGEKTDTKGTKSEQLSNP
Procedure: as §1, §2, §3

HDAC1 [4] = target: T1, HDAC1; assay: Fluorescence-based biochemical HDAC enzyme inhibition assay (ZMAL substrate); conditions: HDAC1 IC50, preincubation of enzyme and inhibitor 1 h at RT; no irradiation
Procedure: (§4) First, the inhibitory activity and isoform selectivity of compounds and controls (see Figure ) was evaluated in a fluorescence-based biochemical HDAC inhibition assay against recombinant HDAC1, HDAC2, HDAC3, and HDAC6. […] First, 3-fold serial dilutions of test compounds were prepared in DMSO. […] IC50 values were determined by generating normalized dose–response curves using the three-parameter logistic equation (GraphPad Prism 8.0, San Diego, USA).

HDAC2 [5] = target: T2, HDAC2; assay: as above; conditions: HDAC2 IC50, preincubation of enzyme and inhibitor 1 h at RT; no irradiation
Procedure: as §4

human recombinant HDAC6 = target: T3, human recombinant HDAC6 (Homo sapiens, UniProt Q9UBN7); assay: as above
T3 sequence (Q9UBN7 1-1215): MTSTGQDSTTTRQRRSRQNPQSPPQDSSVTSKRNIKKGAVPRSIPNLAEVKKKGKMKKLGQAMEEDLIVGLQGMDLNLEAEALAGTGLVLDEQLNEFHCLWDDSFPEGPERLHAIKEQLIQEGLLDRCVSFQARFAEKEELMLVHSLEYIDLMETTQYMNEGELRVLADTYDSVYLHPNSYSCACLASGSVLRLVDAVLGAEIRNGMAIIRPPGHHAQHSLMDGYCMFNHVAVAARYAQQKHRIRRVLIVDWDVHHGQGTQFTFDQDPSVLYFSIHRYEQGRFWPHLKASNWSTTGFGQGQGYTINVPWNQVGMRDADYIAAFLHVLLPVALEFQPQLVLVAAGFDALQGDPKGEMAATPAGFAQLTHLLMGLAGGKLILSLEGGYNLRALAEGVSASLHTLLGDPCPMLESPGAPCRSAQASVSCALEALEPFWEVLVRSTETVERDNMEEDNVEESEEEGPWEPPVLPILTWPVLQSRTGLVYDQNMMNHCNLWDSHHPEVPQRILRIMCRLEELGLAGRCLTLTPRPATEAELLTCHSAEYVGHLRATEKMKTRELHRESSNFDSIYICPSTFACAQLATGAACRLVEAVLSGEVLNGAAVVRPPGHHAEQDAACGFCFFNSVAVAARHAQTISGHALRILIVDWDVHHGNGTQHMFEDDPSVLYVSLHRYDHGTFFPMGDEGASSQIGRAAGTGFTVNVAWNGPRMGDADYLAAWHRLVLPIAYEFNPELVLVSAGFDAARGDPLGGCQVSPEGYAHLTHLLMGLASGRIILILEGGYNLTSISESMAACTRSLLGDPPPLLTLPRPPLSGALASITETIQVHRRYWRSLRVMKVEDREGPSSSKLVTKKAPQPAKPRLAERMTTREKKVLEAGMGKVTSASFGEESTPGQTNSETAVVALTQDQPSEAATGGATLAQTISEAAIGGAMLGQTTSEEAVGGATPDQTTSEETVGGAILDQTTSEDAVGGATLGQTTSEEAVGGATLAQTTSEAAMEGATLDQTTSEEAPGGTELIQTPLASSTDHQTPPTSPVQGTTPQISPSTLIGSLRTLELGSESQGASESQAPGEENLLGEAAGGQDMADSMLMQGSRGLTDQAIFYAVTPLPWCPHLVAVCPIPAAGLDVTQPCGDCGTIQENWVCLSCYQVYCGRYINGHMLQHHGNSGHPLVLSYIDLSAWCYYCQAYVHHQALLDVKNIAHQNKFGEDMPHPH
Procedure: as §4

T1 sequence (Q13547 whole entry): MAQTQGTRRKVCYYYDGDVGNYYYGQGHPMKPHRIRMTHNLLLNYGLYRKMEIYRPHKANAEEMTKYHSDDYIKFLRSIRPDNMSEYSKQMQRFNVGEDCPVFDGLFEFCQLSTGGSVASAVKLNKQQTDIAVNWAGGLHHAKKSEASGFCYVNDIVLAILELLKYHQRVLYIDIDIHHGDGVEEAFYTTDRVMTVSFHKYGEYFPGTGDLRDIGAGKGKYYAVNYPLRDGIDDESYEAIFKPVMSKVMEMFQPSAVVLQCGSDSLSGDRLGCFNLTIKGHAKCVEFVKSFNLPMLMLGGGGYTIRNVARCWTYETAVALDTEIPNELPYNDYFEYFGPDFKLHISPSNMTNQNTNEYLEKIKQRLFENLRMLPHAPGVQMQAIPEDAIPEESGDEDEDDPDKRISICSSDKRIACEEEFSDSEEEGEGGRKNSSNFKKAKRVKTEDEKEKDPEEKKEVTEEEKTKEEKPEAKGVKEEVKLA

dissociation behavior from HDAC1 upon 100-fold dilution (HDAC1 [2]) | dissociation behavior from HDAC2 upon 100-fold dilution (HDAC2 [3]) | IC50 (HDAC1 [4]) | IC50 (HDAC2 [5]) | IC50 (human recombinant HDAC6) | SMILES | IC50 (HDAC2 [1])
– | – | – | – | – | CC(=O)Nc1ccc(C(=O)Nc2cc(-c3cccs3)ccc2N)cc1 [Cpd-60, reference compound] | 49 nM
tight-binding properties | tight-binding properties | 23 ± 4 nM | 49 ± 3 nM | > 10000 nM | CC(=O)Nc1ccc(C(=O)Nc2cc(-c3ccccc3)ccc2O)cc1 [ST13, 4-Acetamido-N-(4-hydroxy-[1,1′-biphenyl]-3-yl)-benzamide] | –
